From paper PMC11871066, “Structure-based discovery of hydrocarbon-stapled paxillin peptides that block FAK scaffolding in cancer” (Nature Communications, 2025)

Key:
Test in all cases: Eurofins KINOMEscan profiling, 97 kinases
[1] = target: 97 kinases (kinase named in endpoint) (Homo sapiens, UniProt O60674); details: read-out: % Ctrl, JAK2(JH1domain-catalytic)
[2] = target: 97 kinases (kinase named in endpoint) (Homo sapiens, UniProt O96013); details: read-out: % Ctrl, PAK4
[3] = target: 97 kinases (kinase named in endpoint) (Homo sapiens, UniProt P00519, E255K); details: read-out: % Ctrl, ABL1(E255K)-phosphorylated
[4] = target: 97 kinases (kinase named in endpoint) (Homo sapiens, UniProt P00519, T315I); details: read-out: % Ctrl, ABL(T315I)-phosphorylated
[5] = target: 97 kinases (kinase named in endpoint) (Homo sapiens, UniProt P00533); details: read-out: % Ctrl, EGFR
[6] = target: 97 kinases (kinase named in endpoint) (Homo sapiens, UniProt P00533, L858R); details: read-out: % Ctrl, EGFR(L858R)
[7] = target: 97 kinases (kinase named in endpoint) (Homo sapiens, UniProt P04626); details: read-out: % Ctrl, ERBB2
Sequence of 97 kinases (kinase named in endpoint) (Homo sapiens, UniProt P04626) (P04626 23-1255): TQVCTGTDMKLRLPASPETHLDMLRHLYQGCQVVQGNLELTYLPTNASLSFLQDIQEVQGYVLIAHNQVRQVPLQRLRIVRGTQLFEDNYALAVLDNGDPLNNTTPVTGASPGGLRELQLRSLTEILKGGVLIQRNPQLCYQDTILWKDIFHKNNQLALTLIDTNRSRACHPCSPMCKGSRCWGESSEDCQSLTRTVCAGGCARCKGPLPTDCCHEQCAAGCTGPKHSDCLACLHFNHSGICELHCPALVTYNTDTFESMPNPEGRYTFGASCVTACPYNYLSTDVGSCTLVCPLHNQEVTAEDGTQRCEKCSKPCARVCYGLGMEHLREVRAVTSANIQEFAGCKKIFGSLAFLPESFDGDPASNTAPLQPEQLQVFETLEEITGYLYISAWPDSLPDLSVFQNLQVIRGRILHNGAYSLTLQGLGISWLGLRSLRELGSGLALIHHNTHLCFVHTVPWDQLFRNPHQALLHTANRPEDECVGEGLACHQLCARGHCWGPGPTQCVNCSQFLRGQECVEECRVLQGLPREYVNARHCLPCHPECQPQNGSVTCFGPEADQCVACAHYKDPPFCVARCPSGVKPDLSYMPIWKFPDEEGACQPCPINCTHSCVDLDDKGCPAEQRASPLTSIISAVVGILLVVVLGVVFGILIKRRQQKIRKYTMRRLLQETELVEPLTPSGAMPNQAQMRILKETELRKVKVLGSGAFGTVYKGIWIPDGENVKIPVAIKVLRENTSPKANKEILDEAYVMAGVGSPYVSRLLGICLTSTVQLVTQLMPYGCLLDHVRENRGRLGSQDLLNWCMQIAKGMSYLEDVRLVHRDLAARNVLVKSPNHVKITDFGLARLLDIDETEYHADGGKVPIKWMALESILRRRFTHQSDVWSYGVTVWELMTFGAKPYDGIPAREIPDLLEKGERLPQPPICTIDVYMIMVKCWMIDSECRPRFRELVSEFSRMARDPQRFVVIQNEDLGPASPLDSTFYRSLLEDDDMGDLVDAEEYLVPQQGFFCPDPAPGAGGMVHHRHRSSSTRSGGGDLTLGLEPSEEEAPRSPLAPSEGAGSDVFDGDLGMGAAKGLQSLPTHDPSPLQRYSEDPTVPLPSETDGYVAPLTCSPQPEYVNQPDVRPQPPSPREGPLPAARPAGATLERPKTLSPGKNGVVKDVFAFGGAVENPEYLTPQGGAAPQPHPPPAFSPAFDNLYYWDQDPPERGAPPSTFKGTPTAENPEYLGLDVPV

[8] = target: 97 kinases (kinase named in endpoint) (Homo sapiens, UniProt P07333); details: read-out: % Ctrl, CSF1R
Sequence of 97 kinases (kinase named in endpoint) (Homo sapiens, UniProt P07333) (P07333 20-972): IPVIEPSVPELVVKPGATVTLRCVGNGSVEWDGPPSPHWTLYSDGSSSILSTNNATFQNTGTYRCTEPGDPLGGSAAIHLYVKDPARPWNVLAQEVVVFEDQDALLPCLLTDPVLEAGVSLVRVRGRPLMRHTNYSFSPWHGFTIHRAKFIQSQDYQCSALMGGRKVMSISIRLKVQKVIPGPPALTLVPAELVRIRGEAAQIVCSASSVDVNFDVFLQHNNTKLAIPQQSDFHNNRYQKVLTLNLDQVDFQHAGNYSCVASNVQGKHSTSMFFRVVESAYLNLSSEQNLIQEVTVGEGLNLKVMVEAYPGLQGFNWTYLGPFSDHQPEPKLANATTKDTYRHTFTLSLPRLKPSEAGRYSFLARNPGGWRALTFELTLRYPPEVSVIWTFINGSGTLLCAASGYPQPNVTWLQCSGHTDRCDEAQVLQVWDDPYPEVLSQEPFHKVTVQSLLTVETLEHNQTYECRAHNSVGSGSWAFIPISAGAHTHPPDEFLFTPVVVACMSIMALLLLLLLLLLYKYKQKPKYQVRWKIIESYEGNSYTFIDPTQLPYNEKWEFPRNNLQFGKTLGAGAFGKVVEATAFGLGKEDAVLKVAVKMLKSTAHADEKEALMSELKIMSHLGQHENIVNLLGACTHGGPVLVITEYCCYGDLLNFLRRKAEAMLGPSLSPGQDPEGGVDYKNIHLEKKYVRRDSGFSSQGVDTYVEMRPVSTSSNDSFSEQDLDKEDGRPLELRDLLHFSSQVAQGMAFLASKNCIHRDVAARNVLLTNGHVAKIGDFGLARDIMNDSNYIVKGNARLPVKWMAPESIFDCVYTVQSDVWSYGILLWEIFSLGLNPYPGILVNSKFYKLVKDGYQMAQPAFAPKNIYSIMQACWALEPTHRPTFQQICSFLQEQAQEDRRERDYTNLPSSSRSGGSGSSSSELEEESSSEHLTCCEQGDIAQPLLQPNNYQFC

[9] = target: 97 kinases (kinase named in endpoint) (Homo sapiens, UniProt P10721); details: read-out: % Ctrl, KIT
Sequence of 97 kinases (kinase named in endpoint) (Homo sapiens, UniProt P10721) (P10721 26-976): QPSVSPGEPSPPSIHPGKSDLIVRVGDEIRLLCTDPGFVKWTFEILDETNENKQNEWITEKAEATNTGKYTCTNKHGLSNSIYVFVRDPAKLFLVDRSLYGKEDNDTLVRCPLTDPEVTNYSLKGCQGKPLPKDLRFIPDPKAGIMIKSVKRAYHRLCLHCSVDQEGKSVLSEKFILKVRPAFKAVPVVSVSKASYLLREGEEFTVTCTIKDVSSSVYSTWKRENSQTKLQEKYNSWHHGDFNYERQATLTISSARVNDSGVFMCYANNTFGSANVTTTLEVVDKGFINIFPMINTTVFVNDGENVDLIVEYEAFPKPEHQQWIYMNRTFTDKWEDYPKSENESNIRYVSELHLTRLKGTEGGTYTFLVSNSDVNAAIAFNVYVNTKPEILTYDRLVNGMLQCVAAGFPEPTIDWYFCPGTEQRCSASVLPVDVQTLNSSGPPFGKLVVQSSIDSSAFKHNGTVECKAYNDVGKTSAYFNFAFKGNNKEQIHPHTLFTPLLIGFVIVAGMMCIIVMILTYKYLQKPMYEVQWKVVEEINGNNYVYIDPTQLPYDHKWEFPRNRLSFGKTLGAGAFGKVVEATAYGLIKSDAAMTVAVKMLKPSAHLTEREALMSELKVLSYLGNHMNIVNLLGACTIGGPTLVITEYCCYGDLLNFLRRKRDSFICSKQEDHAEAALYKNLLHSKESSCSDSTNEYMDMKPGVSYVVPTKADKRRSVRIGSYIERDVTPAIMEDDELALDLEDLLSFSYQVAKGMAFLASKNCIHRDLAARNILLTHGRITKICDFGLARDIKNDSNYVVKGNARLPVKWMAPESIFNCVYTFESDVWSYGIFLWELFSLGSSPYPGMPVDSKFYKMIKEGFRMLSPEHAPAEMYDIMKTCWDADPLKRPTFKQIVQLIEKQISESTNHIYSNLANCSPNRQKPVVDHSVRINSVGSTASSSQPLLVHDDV

[10] = target: 97 kinases (kinase named in endpoint) (Homo sapiens, UniProt P15056); details: read-out: % Ctrl, BRAF
[11] = target: 97 kinases (kinase named in endpoint) (Homo sapiens, UniProt P27361); details: read-out: % Ctrl, ERK1
Sequence of 97 kinases (kinase named in endpoint) (Homo sapiens, UniProt P27361) (P27361 whole entry): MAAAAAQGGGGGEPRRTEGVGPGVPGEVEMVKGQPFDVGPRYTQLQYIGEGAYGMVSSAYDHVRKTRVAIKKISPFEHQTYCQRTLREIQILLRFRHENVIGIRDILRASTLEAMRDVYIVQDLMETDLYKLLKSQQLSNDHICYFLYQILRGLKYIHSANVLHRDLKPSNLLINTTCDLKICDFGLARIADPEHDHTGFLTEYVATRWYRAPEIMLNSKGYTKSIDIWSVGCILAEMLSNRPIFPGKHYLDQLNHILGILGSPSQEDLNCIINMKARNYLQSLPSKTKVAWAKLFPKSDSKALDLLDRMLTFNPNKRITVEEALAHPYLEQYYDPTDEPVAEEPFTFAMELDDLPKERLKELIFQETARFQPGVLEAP

[12] = target: 97 kinases (kinase named in endpoint) (Homo sapiens, UniProt P30530); details: read-out: % Ctrl, AXL
[13] = target: 97 kinases (kinase named in endpoint) (Homo sapiens, UniProt P31749); details: read-out: % Ctrl, AKT1
[14] = target: 97 kinases (kinase named in endpoint) (Homo sapiens, UniProt P31751); details: read-out: % Ctrl, AKT2
[15] = target: 97 kinases (kinase named in endpoint) (Homo sapiens, UniProt P35968); details: read-out: % Ctrl, VEGFR2
[16] = target: 97 kinases (kinase named in endpoint) (Homo sapiens, UniProt P42336); details: read-out: % Ctrl, PIK3CA
[17] = target: 97 kinases (kinase named in endpoint) (Homo sapiens, UniProt P43403); details: read-out: % Ctrl, ZAP70
[18] = target: 97 kinases (kinase named in endpoint) (Homo sapiens, UniProt P45983); details: read-out: % Ctrl, JNK1
Sequence of 97 kinases (kinase named in endpoint) (Homo sapiens, UniProt P45983) (P45983 whole entry): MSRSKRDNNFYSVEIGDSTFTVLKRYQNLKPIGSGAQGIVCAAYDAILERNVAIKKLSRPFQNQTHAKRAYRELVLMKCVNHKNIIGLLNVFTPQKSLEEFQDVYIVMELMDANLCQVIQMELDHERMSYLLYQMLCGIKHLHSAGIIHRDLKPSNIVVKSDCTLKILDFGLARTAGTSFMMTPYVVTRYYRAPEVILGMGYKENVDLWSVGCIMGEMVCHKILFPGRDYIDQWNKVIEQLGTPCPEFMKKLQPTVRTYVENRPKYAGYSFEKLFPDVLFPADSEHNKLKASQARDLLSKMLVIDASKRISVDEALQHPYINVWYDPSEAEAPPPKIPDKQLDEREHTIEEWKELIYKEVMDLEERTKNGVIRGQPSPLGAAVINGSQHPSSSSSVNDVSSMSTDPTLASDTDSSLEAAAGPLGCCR

[19] = target: 97 kinases (kinase named in endpoint) (Homo sapiens, UniProt P48730); details: read-out: % Ctrl, CSNK1D
[20] = target: 97 kinases (kinase named in endpoint) (Homo sapiens, UniProt P50750); details: read-out: % Ctrl, CDK9
[21] = target: 97 kinases (kinase named in endpoint) (Homo sapiens, UniProt P52333); details: read-out: % Ctrl, JAK3(JH1domain-catalytic)
Sequence of 97 kinases (kinase named in endpoint) (Homo sapiens, UniProt P52333) (P52333 whole entry): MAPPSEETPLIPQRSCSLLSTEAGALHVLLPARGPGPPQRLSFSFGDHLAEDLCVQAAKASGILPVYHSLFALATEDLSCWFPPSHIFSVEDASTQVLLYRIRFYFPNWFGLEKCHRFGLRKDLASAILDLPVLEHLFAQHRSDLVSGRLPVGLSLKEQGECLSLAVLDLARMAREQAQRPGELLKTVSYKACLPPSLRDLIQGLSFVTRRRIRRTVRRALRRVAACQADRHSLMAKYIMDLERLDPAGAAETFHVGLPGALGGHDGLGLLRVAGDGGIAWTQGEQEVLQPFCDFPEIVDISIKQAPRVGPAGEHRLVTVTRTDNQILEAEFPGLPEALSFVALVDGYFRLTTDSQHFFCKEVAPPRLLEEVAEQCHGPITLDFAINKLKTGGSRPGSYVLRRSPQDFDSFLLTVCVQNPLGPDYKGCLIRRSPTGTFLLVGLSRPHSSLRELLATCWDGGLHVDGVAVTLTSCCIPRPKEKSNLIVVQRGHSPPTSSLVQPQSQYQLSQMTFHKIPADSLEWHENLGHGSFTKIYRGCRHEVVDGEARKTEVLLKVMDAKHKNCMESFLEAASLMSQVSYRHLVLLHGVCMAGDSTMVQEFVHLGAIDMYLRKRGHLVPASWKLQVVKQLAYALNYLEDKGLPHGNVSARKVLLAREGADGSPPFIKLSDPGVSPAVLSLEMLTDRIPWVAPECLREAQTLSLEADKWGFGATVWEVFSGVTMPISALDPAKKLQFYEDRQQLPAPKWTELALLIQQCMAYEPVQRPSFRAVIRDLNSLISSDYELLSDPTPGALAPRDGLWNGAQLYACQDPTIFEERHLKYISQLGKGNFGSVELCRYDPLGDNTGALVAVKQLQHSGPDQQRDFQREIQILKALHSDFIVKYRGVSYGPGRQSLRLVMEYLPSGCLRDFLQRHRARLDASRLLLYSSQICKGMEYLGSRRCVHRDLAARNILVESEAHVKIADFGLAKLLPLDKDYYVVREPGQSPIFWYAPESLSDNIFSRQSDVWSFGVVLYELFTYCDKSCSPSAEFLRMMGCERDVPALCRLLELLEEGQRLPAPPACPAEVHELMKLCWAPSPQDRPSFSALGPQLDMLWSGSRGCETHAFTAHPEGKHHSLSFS

[22] = target: 97 kinases (kinase named in endpoint) (Homo sapiens, UniProt Q02750); details: read-out: % Ctrl, MEK1
[23] = target: 97 kinases (kinase named in endpoint) (Homo sapiens, UniProt Q13153); details: read-out: % Ctrl, PAK1
[24] = target: 97 kinases (kinase named in endpoint) (Homo sapiens, UniProt Q86UX6); details: read-out: % Ctrl, YANK3
[25] = target: 97 kinases (kinase named in endpoint) (Homo sapiens, UniProt Q8NI60); details: read-out: % Ctrl, ADCK3
[26] = target: 97 kinases (kinase named in endpoint) (Homo sapiens, UniProt Q9HBH9); details: read-out: % Ctrl, MKNK2
[27] = target: 97 kinases (kinase named in endpoint) (Homo sapiens, UniProt Q9UPE1); details: read-out: % Ctrl, SRPK3
[28] = target: 97 kinases (kinase named in endpoint) (Homo sapiens, UniProt Q9Y463); details: read-out: % Ctrl, DYRK1B

| SMILES | remaining binding at 1 µM [1] | remaining binding at 1 µM [2] | remaining binding at 1 µM [3] | remaining binding at 1 µM [4] | remaining binding at 1 µM [5] | remaining binding at 1 µM [6] | remaining binding at 1 µM [7] | remaining binding at 1 µM [8] | remaining binding at 1 µM [9] | remaining binding at 1 µM [10] | remaining binding at 1 µM [11] | remaining binding at 1 µM [12] | remaining binding at 1 µM [13] | remaining binding at 1 µM [14] | remaining binding at 1 µM [15] | remaining binding at 1 µM [16] | remaining binding at 1 µM [17] | remaining binding at 1 µM [18] | remaining binding at 1 µM [19] | remaining binding at 1 µM [20] | also measured |
| --- | --- | --- | --- | --- | --- | --- | --- | --- | --- | --- | --- | --- | --- | --- | --- | --- | --- | --- | --- | --- | --- |
| CCCCCCCCCCCCCC(=O)N[C@@H](CC(N)=O)C(=O)N[C@@H](CC(C)C)C(=O)N[C@]1(C)CCCCCCC=CCCC[C@@](C)(C(=O)N[C@@H](CCC(=O)O)C(=O)N[C@@H](CC(C)C)C(=O)N[C@@H](CC(N)=O)C(N)=O)NC(=O)[C@H](CC(C)C)NC(=O)[C@H](CC(C)C)NC(=O)[C@H](CCCNC(=N)N)NC(=O)[C@H](CC(=O)O)NC(=O)[C@H](CC(C)C)NC(=O)[C@H](CCC(=O)O)NC1=O [compound 2012] | 87% | 100% | 70% | 100% | 93% | 99% | 55% | 95% | 96% | 100% | 100% | 74% | 100% | 93% | 100% | 100% | 96% | 97% | 97% | 100% | remaining binding at 1 µM [21]: 83%; remaining binding at 1 µM [22]: 94%; remaining binding at 1 µM [23]: 100%; remaining binding at 1 µM [24]: 91%; remaining binding at 1 µM [25]: 100%; remaining binding at 1 µM [26]: 100%; remaining binding at 1 µM [27]: 79%; remaining binding at 1 µM [28]: 91% |
| CNC(=O)c1ccc(Nc2ncc(C(F)(F)F)c(NCc3nccnc3N(C)S(C)(=O)=O)n2)cc1 [defactinib] | 0.1% | 7.4% | 82% | 4.9% | 92% | 81% | 65% | 72% | 47% | 100% | 88% | 3.6% | 100% | 95% | 37% | 100% | 95% | 61% | 93% | 90% | remaining binding at 1 µM [21]: 0%; remaining binding at 1 µM [22]: 83%; remaining binding at 1 µM [23]: 65%; remaining binding at 1 µM [24]: 89%; remaining binding at 1 µM [25]: 93%; remaining binding at 1 µM [26]: 100%; remaining binding at 1 µM [27]: 47%; remaining binding at 1 µM [28]: 14% |
